# Assay results as given in patent publication US8461176B2, “Enantiomerically enriched aryloazol-2-yl cyanoethylamino compounds, method of making and method of using thereof” (Merial Limited, priority 2008, dated 2013).
# Assays:
# [1] = tested on: ivermectin-resistant Trichostrongylus columbriformis; assay: Method I: sheep in vivo, ivermectin-resistant Trichostrongylus colubriformis; conditions: 1.5 mg/kg or 3 mg/kg orally
# From the text: (§1) Method I: Screening Method to Test Activity of Compounds Against Ivermectin-Resistant Haemonchus contortus, Ostertagia circumcincta, and Trichostrongylus colubriformis In Vivo in Sheep.
# (§2) Sheep were challenged orally with infective 3rd stage larvae (L3) of Ostertagia circumcincta (˜3,000-6,000 infective L3 per animal) on Dat −28, Haemonchus contortus (˜2,000-4,000 infective L3 per animal) on Dat −25, and Trichostrongylus colubriformis (˜3,000-6,000 infective L3 per species per animal) on Dat −23. The inoculation schedule was designed so that nematodes were expected to be in the adult stage on Day 0. Test compounds were dissolved in a mixture of DMSO/Corn oil (1:1) at a concentration of 10 mg/mL. All treatments were administered orally once on Day 0. At sacrifice on Day 14 the abomasum, small intestine and large intestine (including cecum) were removed. Nematode counts were conducted on 10% (abomasal and small intestinal content, abomasal soak) or 20% aliquots (large intestinal content). All nematodes were speciated, or assigned to species based on location of recovery (adult females, fourth-stage larvae) for a total count per species. Efficacy was calculated as the % reduction in the mean number of worms in each test group compared with the mean number of worms recovered from the control group. […]
# [2] = tested on: Nematodirus helvetianus; assay: Method H: cattle in vivo, Nematodirus helvetianus
# From the text: (§3) Method H: Screening Method to Test Activity of Compounds Against Haemonchus placei, Ostertagia ostertagi, Trichostrongylus axei, Cooperia punctata, Bunostomum phlebotomum, Oesophagostomum radiatum, Dictyocaulus viviparus, and Nematodirus helvetianus In Vivo in Cattle.
# (§4) Calves were challenged intra-aurally with larvae from Bunostomum phlebotomum (500-1000 L3 per animal) on Dat −56; and orally with larvae from Oesophagostomum radiatum (1,000-2,000 infective L3 per animal) on Dat −49, Nematodirus helvetianus (3,000-6,000 infective L3 per animal) on Dat −28, Haemonchus placei (5,000-7,000 infective L3 per animal) on Dat −28, Dictyocaulus viviparus (1,000-2,000 infective L3 per animal) on Dat −28, Ostertagia ostertagi (10,000-20,000 infective L3 per animal) on Dat −21, Trichostrongylus axei (10,000-20,000 infective L3 per animal) on Dat −21, Cooperia punctata (10,000-20,000 infective L3 per animal) on Dat −28, and Cooperia oncophora (10,000-20,000 infective L3 per animal) on Dat −21. The test compound was administered alone at a dose of 3 or 6 mg/kg orally or subcutaneously or subcutaneously at a dose of 6 mg/kg in combination with ivermectin at a dose of 50 mcg/kg. For oral administration, test compounds were formulated at a concentration of 10 mg/mL in DMSO/Corn oil (1:1). For subcutaneous administration, test compounds were formulated in propylene glycol/glycerol formal (60:40). All treatments were administered at Day 0. At necropsy on Day 14/15, the abomasa, small intestine and large intestine were removed and processed for parasite recovery. Nematode counts were conducted on appropriate aliquots. Efficacy was calculated for each nematode species by calculating the percent efficacy as 100[(C−T)/C], where C is the mean count among untreated controls and T is the count of the treated animals. Compound number 3.024 provided >95% efficacy against Haemonchus placei, Ostertagia ostertagi, Trichostrongylus axei, Cooperia punctata, Oesophagostomum radiatum and Nematodirus helvetianus at a dose as low as 3 mg/kg administered orally. […]
# [3] = tested on: Cooperia punctata; assay: Method H: cattle in vivo, Cooperia punctata; conditions: compound alone, dose as low as 3 mg/kg administered orally
# From the text: as §3
# (§5) Calves were challenged intra-aurally with larvae from Bunostomum phlebotomum (500-1000 L3 per animal) on Dat −56; and orally with larvae from Oesophagostomum radiatum (1,000-2,000 infective L3 per animal) on Dat −49, Nematodirus helvetianus (3,000-6,000 infective L3 per animal) on Dat −28, Haemonchus placei (5,000-7,000 infective L3 per animal) on Dat −28, Dictyocaulus viviparus (1,000-2,000 infective L3 per animal) on Dat −28, Ostertagia ostertagi (10,000-20,000 infective L3 per animal) on Dat −21, Trichostrongylus axei (10,000-20,000 infective L3 per animal) on Dat −21, Cooperia punctata (10,000-20,000 infective L3 per animal) on Dat −28, and Cooperia oncophora (10,000-20,000 infective L3 per animal) on Dat −21. The test compound was administered alone at a dose of 3 or 6 mg/kg orally or subcutaneously or subcutaneously at a dose of 6 mg/kg in combination with ivermectin at a dose of 50 mcg/kg. […] Efficacy was calculated for each nematode species by calculating the percent efficacy as 100[(C−T)/C], where C is the mean count among untreated controls and T is the count of the treated animals. […]
# [4] = tested on: Toxocara cati; assay: Method G: anthelmintic efficacy against induced infections of adult nematodes in cats, Toxocara cati; format: in vivo; conditions: oral, once, doses as low as 1 mg/kg
# Protocol: (§6) Method G: Evaluation of Anthelmintic Efficacy Against Induced Infections of Adult Nematodes in Cats
# (§7) Cats were inoculated on three consecutive days with an aliquot of infective eggs of Toxocara cati (days −63, −62, −61) and Ancylostoma tubaeforme (days −28, −27, −26) from one bulk solution each. The inoculation schedule was designed such that nematodes were adult on day 0. The approximate number of infective eggs/larvae given was recorded. Fecal samples were collected between day −7 and day −1 and examined to confirm the presence of infections, and are reported as eggs/gram of feces. Each formulation was orally administered once on day 0. On day 8, the cats were humanely euthanized. The stomach, cecum, small and large intestines were removed and the total content was retained for parasite recovery. Parasites were collected and identified. Efficacy was determined for each nematode species by calculating the percent efficacy as 100[(C−T)/C], where C is the mean count among untreated controls and T is the count of the treated animals.
# [5] = tested on: Oesophagostomum radiatum; assay: Method H: cattle in vivo, Oesophagostomum radiatum; conditions: compound alone, dose as low as 3 mg/kg administered orally
# From the text: as §3, §5
# [6] = tested on: Haemonchus contortus; assay: Method B: activity against Haemonchus contortus in vivo in Mongolian gerbil; design: species or system Mongolian gerbil (Meriones unguiculatus); conditions: po, 72 h, oral gavage, dose 0.1 mg/kg, read-out: reduction in nematode infection
# Protocol: Method B: Screening Method to Test Activity of Compounds Against Haemonchus contortus In Vivo in Mongolian Gerbil (Meriones unguiculatus).
# Mongolian gerbils, at least five weeks old, were immunosuppressed and artificially infected with ca. 1000 ensheathed Haemonchus contortus third instar larvae. Six days after infection, the Mongolian gerbils were treated by oral gavage with the test compounds, dissolved in a mixture of 2 parts DMSO and 1 part polyethylene glycol (PEG400), at doses of 100 mg/kg and dissolved in pure polyethylene glycol (PEG400) at doses of 10 and 1 mg/kg. Mongolian gerbils treated only with the placebo (2 parts DMSO and 1 part PEG400 or pure PEG400) served as controls. On day 9 (3 days after treatment) the jirds were euthanized and necropsied for recovery of parasites from the stomach. Efficacy was calculated as the average % reduction in the number of worms in each test group compared with the average number of worms from the control group. […] Compound numbers 1.001, 1.008, 1.012, 1.013 and 1.014 provided at least 95% reduction in nematode in Mongolian gerbils treated by oral gavage with test article at a dose of 100 mg/kg. Compound numbers 1.012, 1.033, 1.064, 2.008, 2.037, 2.038, 2.040, 2.041, 3.001 provided at least 95% reduction in nematode infection at a dose of 10 mg/kg. Compound numbers 1.094, 1.096, 2.048, 3.001, 3.007 and 3.009, provided at least 95% reduction in nematode infection at a dose of 1 mg/kg. Compound numbers 3.006, 3.017 and 3.019 provided at least 95% reduction in nematode infection at a dose of 0.5 mg/kg. Compound numbers 3.005, 3.011 and 3.012 provided at least 95% reduction in nematode infection at a dose of 0.3 mg/kg. The eutomer compound number 3.024 provided at least 95% reduction in nematode infection at a dose of 0.1 mg/kg.
# [7] = tested on: Haemonchus contortus; assay: Method A: screening of activity against Haemonchus contortus L1 larvae in microtitre plate (development to L3 / motility)
# From the text: Method A: Screening Method to Test Activity of Compounds Against Haemonchus contortus.
# [8] = tested on: ivermectin-resistant Ostertagia circumcincta; assay: Method I: sheep in vivo, ivermectin-resistant Ostertagia circumcincta; conditions: 1.5 mg/kg or 3 mg/kg orally
# From the text: as §1, §2
# [9] = tested on: Ivermectin-Resistant Haemonchus contortus, Ostertagia circumcincta, and Trichostrongylus colubriformis; assay: Method I: activity against ivermectin-resistant nematodes in vivo in sheep (all species tested); conditions: oral, once, doses as low as 1.5 mg/kg
# From the text: as §1, §2
# [10] = tested on: Ancylostoma tubaeforme; assay: Method G: anthelmintic efficacy against induced infections of adult nematodes in cats, Ancylostoma tubaeforme; format: in vivo; conditions: oral, once, doses as low as 1 mg/kg
# Protocol: as §6, §7
# [11] = tested on: Ostertagia ostertagi; assay: Method H: cattle in vivo, Ostertagia ostertagi; conditions: compound alone, dose as low as 3 mg/kg administered orally
# From the text: as §3, §5
# [12] = tested on: Caenorhabditis elegans; assay: Inhibition of the motility of Caenorhabditis elegans
# [13] = tested on: Trichostrongylus axei; assay: Method H: cattle in vivo, Trichostrongylus axei; conditions: compound alone, dose as low as 3 mg/kg administered orally
# From the text: as §3, §5
# [14] = tested on: ivermectin-resistant Haemonchus contortus; assay: Method I: sheep in vivo, ivermectin-resistant Haemonchus contortus; conditions: 1.5 mg/kg or 3 mg/kg orally
# From the text: as §1, §2
# [15] = tested on: Haemonchus placei; assay: Method H: cattle in vivo, Haemonchus placei
# From the text: as §3, §4
# [16] = compound alone, dose as low as 3 mg/kg administered orally
# [17] = subcutaneous, 6 mg/kg in combination with ivermectin 50 μg/kg (0.05 mg/kg)
structure (smiles),measurement,setting,value
"C[C@](C#N)(Cn1cc2ncc(Br)cc2n1)NC(=O)c1ccc(OC(F)(F)F)cc1 [Compound 3.024, (+)-N-[2-(6-Bromo-2H-pyrazolo[4,3-b]pyridin-2-yl)-1-cyano-1-methylethyl]-4-trifluoromethoxybenzamide]",efficacy against ivermectin-resistant Trichostrongylus columbriformis,[1],greater than 95%
same,efficacy against Nematodirus helvetianus,[2]; [16],> 95%
same,efficacy against Nematodirus helvetianus,[2]; [17],greater than 95%
same,efficacy against Cooperia punctata,[3],> 95%
same,efficacy against Toxocara cati,[4],> 94%
same,efficacy against Oesophagostomum radiatum,[5],> 95%
same,inhibition in vivo at 0.1 mg/kg,[6],≥ 95%
same,inhibition at 0.0025 ppm,"[7]; Haemonchus contortus, 96 h, test concentration 0.0025 ppm, 4 days assessment",≥ 90%
same,"potency at inhibiting the motility of Haemonchus contortus larvae, eutomer relative to distomer",[7]; relative to the distomer (compound 3.025),greater than 100 times
same,efficacy against ivermectin-resistant Ostertagia circumcincta,[8],greater than 95%
same,efficacy against all species of the nematodes tested (ivermectin-resistant),[9],> 95%
same,efficacy against Ancylostoma tubaeforme,[10],> 94%
same,efficacy against Ostertagia ostertagi,[11],> 95%
same,"potency at inhibiting the motility of Caenorhabditis elegans, relative to compound 3.025",[12],greater than 100 times
same,efficacy against Trichostrongylus axei,[13],> 95%
same,efficacy against ivermectin-resistant Haemonchus contortus,[14],greater than 95%
same,efficacy against Haemonchus placei,[15]; [16],> 95%
same,efficacy against Haemonchus placei (ivermectin-resistant strain),[15]; [17],greater than 95%
